Test results from patent publication US20250057846A1, “COMBINATION OF A TASK1/3 CHANNEL BLOCKER WITH A MUSCARINIC RECEPTOR ANTAGONIST FOR THE TREATMENT OF SLEEP APNEA” (BAYER AKTIENGESELLSCHAFT, priority 2021, published 2025).

System: pig model of obstructive sleep apnea (OSA)
Experiment: pig model of obstructive sleep apnea (OSA): collapsibility of the upper respiratory tract under negative pressure
Assay type: in vivo, German Landrace pigs
Text: The therapeutic potential of the combination of a TASK1/3 channel blocker with a muscarinic receptor antagonist according to the present invention in sleep apnea can be assessed preclinically in a pig model of obstructive sleep apnea (OSA).
Using negative pressure, it is possible to induce collapse and thus obstruction of the upper respiratory tract in anaesthetized, spontaneously breathing pigs (Wirth K. J. et al., Sleep 36(5) (2013) pp. 699-708).
German Landrace pigs are used for the model. The pigs are anaesthetized and tracheotomized. Two tracheal cannulas are inserted into the trachea, one into the rostral part and the other into the caudal part of the trachea.
Using a connection piece, the rostral cannula is connected to a tube to the negative pressure device and to the distal tracheal cannula. The distal tracheal cannula is additionally connected to a tube with an open end to atmosphere via a connection piece that served for free tracheal breathing, circumventing the upper airway. By appropriate opening and clamping of those tubes breathing can be switched from nasal breathing to breathing through the caudal tracheal cannula, circumventing the upper airway, and the (isolated) upper airway can be connected to the negative pressure device, causing airflow in the inspiratory direction.
At certain points in time, the collapsibility of the upper respiratory tract is tested by having the pig breathe via the caudal cannula and applying negative pressures of −50, −100 and −150 cm water head (cm H2O) to the upper respiratory tract. This causes the upper respiratory tract to collapse, which manifests itself in an interruption of the airflow and a pressure drop in the tube system. This test is conducted prior to the administration of the test substance and at certain intervals after the administration of the test substance. An appropriately effective test substance can prevent this collapse of the respiratory tract in the inspiratory phase.

[1] = TASK1/TASK3 channel blocker alone, intranasal 0.3 μg, given at 0 min, time 0 min
[2] = TASK1/TASK3 channel blocker alone, intranasal 0.3 μg, given at 0 min, time 10 min
[3] = TASK1/TASK3 channel blocker alone, intranasal 0.3 μg, given at 0 min, time 30 min
[4] = TASK1/TASK3 channel blocker alone, intranasal 0.3 μg, given at 0 min, time 60 min
[5] = TASK1/TASK3 channel blocker alone, intranasal 0.3 μg, given at 0 min, time 90 min
[6] = R-oxybutynin i.v. bolus 1 mg/kg then i.v. infusion 0.275 mg/kg/h for four hours, given at 0 min, time 0 min
[7] = R-oxybutynin i.v. bolus 1 mg/kg then i.v. infusion 0.275 mg/kg/h for four hours, given at 0 min, time 10 min
[8] = R-oxybutynin i.v. bolus 1 mg/kg then i.v. infusion 0.275 mg/kg/h for four hours, given at 0 min, time 30 min
[9] = R-oxybutynin i.v. bolus 1 mg/kg then i.v. infusion 0.275 mg/kg/h for four hours, given at 0 min, time 60 min
[10] = R-oxybutynin i.v. bolus 1 mg/kg then i.v. infusion 0.275 mg/kg/h for four hours, given at 0 min, time 120 min
[11] = R-oxybutynin i.v. bolus 1 mg/kg then i.v. infusion 0.275 mg/kg/h for four hours, given at 0 min, time 180 min
[12] = R-oxybutynin i.v. bolus 1 mg/kg then i.v. infusion 0.275 mg/kg/h for four hours, given at 0 min, time 240 min
[13] = R-oxybutynin i.v. bolus 1 mg/kg then i.v. infusion 0.275 mg/kg/h for four hours, given at 0 min, time 300 min
[14] = combination experiment: R-oxybutynin i.v. bolus 1 mg/kg then infusion 0.275 mg/kg/h for four hours at 0 min, nasal TASK1/3 channel blocker only given at 120 min, time 0 min
[15] = combination experiment: R-oxybutynin i.v. bolus 1 mg/kg then infusion 0.275 mg/kg/h for four hours at 0 min, nasal TASK1/3 channel blocker only given at 120 min, time 10 min
[16] = combination experiment: R-oxybutynin i.v. bolus 1 mg/kg then infusion 0.275 mg/kg/h for four hours at 0 min, nasal TASK1/3 channel blocker only given at 120 min, time 30 min
[17] = combination experiment: R-oxybutynin i.v. bolus 1 mg/kg then infusion 0.275 mg/kg/h for four hours at 0 min, nasal TASK1/3 channel blocker only given at 120 min, time 60 min
[18] = combination experiment: R-oxybutynin i.v. bolus 1 mg/kg then infusion 0.275 mg/kg/h for four hours at 0 min, nasal TASK1/3 channel blocker only given at 120 min, time 90 min
[19] = combination experiment: R-oxybutynin i.v. bolus 1 mg/kg then infusion 0.275 mg/kg/h for four hours at 0 min, time 120 min = time of nasal application of TASK1/3 channel blocker
[20] = oxybutynin i.v. bolus 1 mg/kg then i.v. infusion 0.275 mg/kg/h for four hours, given at 0 min, time 0 min

COc1ccc(Cl)c(C(=O)N2C3CCC2CN(Cc2c(-c4ccc(C(C)C)cc4)nc4ncccn24)C3)n1 [(3-Chloro-6-methoxypyridin-2-yl)(3-{[2-(4-isopropylphenyl)imidazo[1,2-a]pyrimidin-3-yl]methyl}-3,8-diazabicyclo[3.2.1]oct-8-yl)methanone]
33%: Percent pigs without collaps −50 cm H2O, % [2] | Percent pigs without collaps −100 cm H2O, % [2]
0%: Percent pigs without collaps −50 cm H2O, % [1] | Percent pigs without collaps −100 cm H2O, % [1] | Percent pigs without collaps −150 cm H2O, % [1] | Percent pigs without collaps −150 cm H2O, % [2] | Percent pigs without collaps −50 cm H2O, % [3] | Percent pigs without collaps −100 cm H2O, % [3] | Percent pigs without collaps −150 cm H2O, % [3] | Percent pigs without collaps −50 cm H2O, % [4] | Percent pigs without collaps −100 cm H2O, % [4] | Percent pigs without collaps −150 cm H2O, % [4] | Percent pigs without collaps −50 cm H2O, % [5] | Percent pigs without collaps −100 cm H2O, % [5] | Percent pigs without collaps −150 cm H2O, % [5]
non effective dose: effect of the dose on upper airway collapsibility (TASK1/TASK3 channel blocker alone, 0.3 μg)

CCN(CC)CC#CCOC(=O)[C@](O)(c1ccccc1)C1CCCCC1 [R-oxybutynin, R-Oxybutynin]
100%: Percent pigs without collaps −50 cm H2O, % [9] | Percent pigs without collaps −50 cm H2O, % [17]
at no time: time points at which upper airway collapsibility was inhibited at all negative pressures of −50, −100 and −150 cm head (cm H2O) in all pigs (R-Oxybutynin i.v. bolus 1 mg/kg then i.v. infusion 0,275 mg/kg/h for four hours)
inhibited: upper airway collapsibility at the negative pressure of −50 cm head (cm H2O) (R-Oxybutynin i.v. bolus 1 mg/kg then i.v. infusion 0,275 mg/kg/h for four hours, time point 60 min after intravenous administration)
33%: Percent pigs without collaps −100 cm H2O, % [17]
0%: Percent pigs without collaps −50 cm H2O, % [6] | Percent pigs without collaps −100 cm H2O, % [6] | Percent pigs without collaps −150 cm H2O, % [6] | Percent pigs without collaps −50 cm H2O, % [7] | Percent pigs without collaps −100 cm H2O, % [7] | Percent pigs without collaps −150 cm H2O, % [7] | Percent pigs without collaps −50 cm H2O, % [8] | Percent pigs without collaps −100 cm H2O, % [8] | Percent pigs without collaps −150 cm H2O, % [8] | Percent pigs without collaps −150 cm H2O, % [9] | Percent pigs without collaps −50 cm H2O, % [10] | Percent pigs without collaps −100 cm H2O, % [10] | Percent pigs without collaps −150 cm H2O, % [10] | Percent pigs without collaps −50 cm H2O, % [11] | Percent pigs without collaps −100 cm H2O, % [11] | Percent pigs without collaps −150 cm H2O, % [11] | Percent pigs without collaps −50 cm H2O, % [12] | Percent pigs without collaps −100 cm H2O, % [12] | Percent pigs without collaps −150 cm H2O, % [12] | Percent pigs without collaps −50 cm H2O, % [13] | Percent pigs without collaps −100 cm H2O, % [13] | Percent pigs without collaps −150 cm H2O, % [13] | Percent pigs without collaps −50 cm H2O, % [14] | Percent pigs without collaps −100 cm H2O, % [14] | Percent pigs without collaps −150 cm H2O, % [14] | Percent pigs without collaps −50 cm H2O, % [15] | Percent pigs without collaps −100 cm H2O, % [15] | Percent pigs without collaps −150 cm H2O, % [15] | Percent pigs without collaps −50 cm H2O, % [16] | Percent pigs without collaps −100 cm H2O, % [16] | Percent pigs without collaps −150 cm H2O, % [16] | Percent pigs without collaps −150 cm H2O, % [17] | Percent pigs without collaps −50 cm H2O, % [18] | Percent pigs without collaps −100 cm H2O, % [18] | Percent pigs without collaps −150 cm H2O, % [18] | Percent pigs without collaps −50 cm H2O, % [19] | Percent pigs without collaps −100 cm H2O, % [19] | Percent pigs without collaps −150 cm H2O, % [19]
50%: Percent pigs without collaps −100 cm H2O, % [9]

CCN(CC)CC#CCOC(=O)C(O)(c1ccccc1)C1CCCCC1 (stereo not shown) [oxybutynin, Oxybutynin]
0%: Percent pigs without collaps −50 cm H2O, % [20] | Percent pigs without collaps −100 cm H2O, % [20] | Percent pigs without collaps −150 cm H2O, % [20]
at no time point: time points at which upper airway collapsibility was inhibited at all three negative pressures of −50, −100 and −150 cm head (cm H2O) in all pigs (oxybutynin i.v. bolus 1 mg/kg then i.v. infusion 0,275 mg/kg/h for four hours)
